The nature of data set [1]: Cytotoxicity against the panel of six human cancer cell lines and HUVEC. As to the method:
(§1) All of the compounds were also evaluated for their cytotoxic properties against six human cancer cell lines (lung carcinoma epithelian (A549), colon carcinoma (HCT-116), pancreatic carcinoma (BXPC-3), breast cancer (MCF-7), cervical epithelium (HeLa), and erythroleukemic (K562)) and a human umbilical vein endothelial cell (HUVEC) line (Table 2).
(§2) The cytotoxicity against HCT-116, BXPC-3, HeLa, MCF-7, A-549, and HUVEC cell lines was evaluated using the SRB method. The cytotoxicity against K562 and Vero cell lines was evaluated using the MTT method. Adriamycin was used as a positive control. All cells were cultivated in T-75 flasks containing 10% Fetal Bovine Serum (FBS), Dulbeco’s Modified Eagle Medium (DMEM) with 2 mM L-glutamine, and 1% penicillin-streptomycin at 37 °C in a humidified atmosphere with 5% CO2. For SRB assay, cells in their log phase of growth were seeded into 96 well micro plates (4 × 10^4 cells per well) and followed by treating with test samples at 10 μM or DMSO. After incubation at 37 °C for 72 h, the cells were fixed with the cold 20% (w/v) TCA for 2 h and stained with Sulforhodamine B (SRB) dye for 0.5 h. The protein-bound dye is dissolved in Tris base solution for OD determination at 540 nm on an ELISA Plate Reader. For MTT assay, cells (5 × 10^3 cells per well) were plated in 96 well micro plates. After cell attachment overnight, new medium containing test compounds or DMSO was added. The plate was incubated for 48 h at 37 °C and incubated with 3-(4,5-dimethylthiazol-2-yl)-2,5-diphenyltetrazolium bromide (MTT) for additional 2–4 hours. The assay plate was then read at 490 nm on an ELISA Plate Reader. The data were obtained from experiments carried out in triplicate.

The nature of data set [2]: Cytotoxicity SRB assay, HeLa. The settings on record: human, HeLa cervical epithelium cells. As for the experimental part: as §1, §2
Background: In SRB staining, fixed cells bind dye roughly in proportion to their protein.

Another data set has as its system Plasmodium falciparum. As to the kind of experiment: Antiplasmodial assay (PicoGreen growth inhibition in infected human erythrocytes). The format is cell-based. Conditions: Erythrocyte, in vitro, W2 and 3D7 strains cultured, strain of the values not stated, read-out: Plasmodium falciparum IC50. As for the experimental part:
Activity against the causative agent of malaria was performed by culturing human erythrocytes and infecting them with P. falciparum, as described by Trager and Jensen[36]. Briefly, the W2 (Chloroquine resistant) and 3D7 (Chloroquine sensitive) strains of P. falciparum were cultured in RPMI 1640 medium (Sigma-Aldrich, USA) supplemented with 10% human serum (from O+ blood) at a hematocrit of 2% erythrocytes (O+) at 37 °C in a gas mixture of 5% CO2, 5% O2, and 90% N2. Parasites were synchronized by a temperature cycling technique as described by Almanza et al.[37]

Data set [3] in a line: Cytotoxicity MTT assay, K562. The settings on record: human, K562 erythroleukemic cells. As for the experimental part:
as §1, §2
On the technique in general: Tetrazolium dyes change colour on reduction, which living cells bring about.

Data set [4] can be described thus: Cytotoxicity SRB assay, A-549. The settings on record: human, A-549 lung carcinoma cells. As to the method: as §1, §2
The next data set relates to Leishmania donovani. As to the kind of experiment: Antileishmanial assay (PicoGreen). Format: cell-based. Conditions: in vitro, read-out: Leishmania donovani IC50. As for the experimental part:
The anti-leishmania activity was evaluated following the protocol described by Calderon et al.[39], using the fluorescent DNA intercalator PicoGreen (Invitrogen, USA). The species responsible for visceral leishmaniasis, L. donovani, was used for the assays.

Data set [5] can be described thus: Cytotoxicity SRB assay, HCT-116. The settings on record: human, HCT-116 colon carcinoma cells. As to the method:
as §1, §2

A short description of data set [6]: Cytotoxicity SRB assay, MCF-7. The settings on record: human, MCF-7 breast cancer cells. As for the experimental part:
as §1, §2

The nature of data set [7]: Cytotoxicity SRB assay, BXPC-3. Conditions: human, BXPC-3 pancreatic carcinoma cells. As to the method: as §1, §2
For a further data set, the system named is Trypanosoma cruzi. As to the kind of experiment: Antitrypanosomal assay (beta-galactosidase reporter, intracellular amastigotes in Vero cells). Note: key: I: Inactive. The format is cell-based. The settings on record: Tulahuen clone C4, intracellular amastigotes in Vero cells, 120 h. As for the experimental part:
Briefly, the expression of the reporter gene for beta-galactosidase (β-Gal) in the Tulahuen clone C4 of T. cruzi is assessed by colorimetry at 570 nm, which correlates with the parasite growth. Assays were performed on the intracellular amastigote form of the parasite infecting African green monkey kidney (Vero) cells, incubated for 120 h at 37 °C with 5% CO2.

Data set [8] can be described thus: Chemical stability / interconversion in solvents. The format is physicochemical. Conditions: MeOH, EtOH, MeOH-d4 (except H2O), stationary state, within a week. As to the method: Compounds 1–6 and 11–27 were designed and synthesized through one or two-step semisynthetic reaction with high yields ranging from 65–95% from 7 and 8 (Fig. 1). The structures of new derivatives 12, 14–19, 21–22, 24, and 27 were identified by extensive spectroscopic methods including HRESIMS, ^1H NMR, and ^13C NMR. Compound 1 was prepared in yield of 95% through one-step acetonide reaction from 8. Other acetonide derivatives (11, 17, 18, 20, 23, 25, and 26) were also prepared with the same yields. Chlorination of compound 8 with sulfuryl chloride[33] followed by selective reduction with 10% Pd-C under H2 atmosphere led to the natural compound 2 (68%, yield). Acylation reaction was carried out by reaction of anhydride with the corresponding materials (1–3, and 6–8) in high yields (85–95%). In order to prepare 6, oxidation of the allyl alcohol 8 was examined under various oxidation conditions (PCC, PDC, MnO2, DMP, and IBX). However, only DMP and IBX enabled the selective oxidation of the allyl alcohol to give 6 in 65% and 35% yields, respectively (Fig. 3). […] Compounds 3–6 are diastereomers differing from each other by the absolute configurations of the 4′, 5′-diol chiral centers. The proportions of compounds 3–6 were in dynamic equilibrium, and the final ratios of 3–6 were approximately 8: 2: 5: 6 (Fig. 4). […]

A short description of data set [9]: Cytotoxicity SRB assay, HUVEC. The settings on record: human, HUVEC (umbilical vein endothelial cells). As to the method: as §1, §2
Data set [10] in a line: Toxicity against Vero cells (MTT). Format: cell-based, African green monkey. Conditions: African green monkey, Vero cells (mammalian kidney cell line); MTT, 48 h. As to the method:
(§3) It should be emphasized that toxicity is a major concern of drug discovery and development. The above active compounds were evaluated for in vitro toxicity against a mammalian kidney cell line (Vero). The selectivity index (SI) was used as the evaluation parameter of drug potential of the test samples by comparing the toxicity on the Vero cell line (CC50) and the selective inhibitory effect on P. falciparum, L. donovani or T. cruzi (IC50) calculated here as CC50/IC50.
(§4) Adriamycin was used as a positive control.

In a further data set the test system is Vero cells. As to the kind of experiment: Toxicity against Vero cells (MTT). Conditions: in vitro toxicity against mammalian kidney cell line (Vero). Format: cell-based, African green monkey. As for the experimental part:
as §3, §4

The test system of another data set is P. falciparum lines K1. Conditions: cited from earlier work.
In another data set the test system is P. falciparum lines 3D7. The arrangement: method as in PMID 20429578, PMID 20429578. Conditions: line 3D7; read-out: IC50 against P. falciparum line 3D7; cited from earlier work.
In the next data set the test system is P. falciparum lines Dd2. The settings on record: line Dd2; read-out: IC50 against P. falciparum line Dd2; cited from earlier work.

Molecules are shown by their SMILES. ≈ marks a conversion by molar mass, not a printed value. A value given as a limit tells only on which side of the number the result lay.

These results are taken from publication PMC5603512, “Discovery, Semisynthesis, Antiparasitic and Cytotoxic Evaluation of 14-Membered Resorcylic Acid Lactones and Their Derivatives” (Scientific Reports, 2017).

In general, IC50 refers to the concentration that inhibits the measured activity by half. In general, CC50 refers to the concentration giving 50% cytotoxicity. Lower therefore signals greater toxicity to the cells.

With `COc1cc(O)c2c(c1)/C=C/C[C@@H](O)[C@H](O)C(=O)/C=C/C[C@H](C)OC2=O` [Compound 3], the IC50 in data set [1] was below 10 µM; in the data set on Plasmodium falciparum, above 30.7 µM; in the data set with Leishmania donovani, 9.11 µM. Further, the IC50 at 72 h in [2] is 7.18 µM; in data set [4] it was above 10 µM; in [5], above 10 µM; in data set [6], above 10 µM; in data set [7] it was above 10 µM. This molecule registered an IC50 at 48 h in data set [3] above 10 µM. In addition, the “Trypanosoma cruzi IC50” value with Trypanosoma cruzi is given as “I”. Besides, in [8], the “Stability in protic solvents” value is “quite stable”.
Regarding `COc1cc(O)c2c(c1)/C=C/C[C@H](O)[C@H](O)C(=O)/C=C/C[C@H](C)OC2=O` [Compound 6], the 50% inhibitory concentration (IC50) at 72 h in data set [9] is 8.59 µM; in [2] it was above 10 µM; in data set [4], above 10 µM; in data set [5] it was above 10 µM; in [6], above 10 µM; in [7] it was 8.47 µM. Further, the IC50 in [1] was below 10 µM; in the data set with Plasmodium falciparum, 14.9 µM; with Leishmania donovani, 1.93 µM. Besides, the 50% inhibitory concentration (IC50) at 48 h in data set [3] is above 10 µM. This molecule returned a CC50 at 48 h in data set [10] of 3.2 µM. In addition, in [8], the “Stability in protic solvents” value is recorded as “subtle chemical conversion of 6 to 3–5”.
Turning to `COc1cc2c(c(OC(C)=O)c1)C(=O)O[C@@H](C)C/C=C/[C@H](OC(C)=O)[C@@H](OC(C)=O)[C@@H](OC(C)=O)C/C=C/2` [Compound 13], the half-maximal inhibitory concentration (IC50) at 72 h in [9], in [2], in data set [4], in data set [5], in [6] and in [7] was above 10 µM each time. The IC50 was 6.95 µM in the data set on Plasmodium falciparum and above 15.7 µM with Leishmania donovani. Also, in data set [3], the half-inhibitory concentration (IC50) at 48 h was above 10 µM. Moreover, the midpoint of cytotoxicity in data set [10], the CC50 at 48 h, lay at 427 µM. For the same molecule, the “Toxicity (in words)” value in the data set with Vero cells is on record as “non-toxic”. In addition, the “Trypanosoma cruzi IC50” value with Trypanosoma cruzi is on record as “I”.
Consider `COc1cc(O)c2c(c1)[C@H]1O[C@@H]1C[C@H](O)[C@H](O)C(=O)/C=C\C[C@H](C)OC2=O` [Hypothemycin], for which the “IC50 against P. falciparum line K1” value in the data set with P. falciparum lines K1 is 2.2 µg/mL (≈ 5.81 µM).
In the case of `COc1cc(O)c2c(c1)/C=C/C[C@H](O)[C@H](O)[C@@H](O)CCC[C@H](C)OC2=O` [Paecilomycin E, paecilomycin E], the IC50 in the data set on P. falciparum lines 3D7 is 0.02 µM; in the data set with P. falciparum lines Dd2, 8.8 µM.
With `COc1cc(O)c2c(c1)/C=C/C[C@H](O)[C@H](O)[C@H](O)CCC[C@H](C)OC2=O` [Paecilomycin F, paecilomycin F], the IC50 was 1.1 µM in the data set on P. falciparum lines 3D7 and 1.7 µM in the data set on P. falciparum lines Dd2.
As for `C[C@H]1C/C=C/[C@@H](O)[C@@H](O)CC/C=C/c2cc(O)cc(O)c2C(=O)O1` [aigialomycin D], the “IC50 against P. falciparum line K1” value with P. falciparum lines K1 is 6.6 µg/mL (≈ 19.7 µM).
